Reference: the supplement of paper PMC5662764
± gives the standard deviation of the averaged measurements.

Columns and labels:
Assay in all cases: normalised growth rate inhibition (GR value) relative to DMSO control (GR (1 = untreated growth, 0 = cytostasis, <0 = cytotoxic)); higher = less growth inhibition
Settings in all cases: 72 h
[1] = system: BT20
Procedure: (§1)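 Breast cancer cell lines (BT-20, Hs 578T, MCF 10A, MCF7, MDA-MB-231, SK-BR-3) were plated in 384-well plates and treated 24 h later with drugs at six concentrations (0.04-10 µM). Viable cells were counted by Hoechst/dead-cell-stain imaging at 0 and 72 h. Counts were normalised to DMSO controls on the same plate to give the relative cell count and the growth-rate inhibition (GR) value; technical plate triplicates were averaged for each biological replicate.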

[2] = system: HS578T
Procedure: as §1

[3] = system: MCF10A
Procedure: as §1

[4] = system: MCF7
Procedure: as §1

[5] = system: MDAMB231
Procedure: as §1

[6] = system: SKBR3
Procedure: as §1

Compound | normalised growth rate inhibition ([1]; 0.04 µM) | normalised growth rate inhibition ([1]; 0.12 µM) | normalised growth rate inhibition ([1]; 0.37 µM) | normalised growth rate inhibition ([1]; 1.11 µM) | normalised growth rate inhibition ([1]; 3.33 µM) | normalised growth rate inhibition ([1]; 10 µM) | normalised growth rate inhibition ([2]; 0.04 µM) | normalised growth rate inhibition ([2]; 0.12 µM) | normalised growth rate inhibition ([2]; 0.37 µM) | normalised growth rate inhibition ([2]; 1.11 µM) | normalised growth rate inhibition ([2]; 3.33 µM) | normalised growth rate inhibition ([2]; 10 µM) | normalised growth rate inhibition ([3]; 0.04 µM) | normalised growth rate inhibition ([3]; 0.12 µM) | normalised growth rate inhibition ([3]; 0.37 µM) | normalised growth rate inhibition ([3]; 1.11 µM) | normalised growth rate inhibition ([3]; 3.33 µM) | normalised growth rate inhibition ([3]; 10 µM) | normalised growth rate inhibition ([4]; 0.04 µM) | normalised growth rate inhibition ([4]; 0.12 µM) | normalised growth rate inhibition ([4]; 0.37 µM) | normalised growth rate inhibition ([4]; 1.11 µM) | normalised growth rate inhibition ([4]; 3.33 µM) | normalised growth rate inhibition ([4]; 10 µM) | normalised growth rate inhibition ([5]; 0.04 µM) | normalised growth rate inhibition ([5]; 0.12 µM) | normalised growth rate inhibition ([5]; 0.37 µM) | normalised growth rate inhibition ([5]; 1.11 µM) | normalised growth rate inhibition ([5]; 3.33 µM) | normalised growth rate inhibition ([5]; 10 µM) | normalised growth rate inhibition ([6]; 0.04 µM) | normalised growth rate inhibition ([6]; 0.12 µM) | normalised growth rate inhibition ([6]; 0.37 µM) | normalised growth rate inhibition ([6]; 1.11 µM) | normalised growth rate inhibition ([6]; 3.33 µM) | normalised growth rate inhibition ([6]; 10 µM)
COc1cc2c(Oc3ccc(NC(=O)C4(C(=O)Nc5ccc(F)cc5)CC4)cc3F)ccnc2cc1OCCCN1CCOCC1 [foretinib] | 1.02 ± 0.046 | 0.799 ± 0.15 | 0.236 ± 0.22 | -0.00958 ± 0.12 | -0.0192 ± 0.12 | -0.124 ± 0.12 | 0.936 ± 0.045 | 0.845 ± 0.011 | 0.381 ± 0.15 | 0.256 ± 0.14 | 0.178 ± 0.14 | -0.223 ± 0.12 | 1.03 ± 0.031 | 0.992 ± 0.028 | 0.902 ± 0.034 | 0.429 ± 0.1 | 0.154 ± 0.043 | -0.0329 ± 0.028 | 1.01 ± 0.025 | 0.495 ± 0.2 | 0.134 ± 0.019 | 0.0492 ± 0.039 | 0.00497 ± 0.016 | -0.225 ± 0.025 | 0.91 ± 0.037 | 0.615 ± 0.012 | 0.168 ± 0.12 | 0.113 ± 0.12 | 0.0741 ± 0.17 | -0.211 ± 0.056 | 1.07 ± 0.037 | 0.812 ± 0.26 | 0.0769 ± 0.069 | -0.0562 ± 0.079 | -0.034 ± 0.083 | -0.0967 ± 0.11
Cc1cc([C@@H](C)Nc2ccccc2C(=O)O)c2nc(N3CCOCC3)cc(=O)n2c1 [AZD-6482] | 0.974 ± 0.05 | 0.895 ± 0.079 | 0.758 ± 0.059 | 0.52 ± 0.078 | 0.245 ± 0.08 | -0.0918 ± 0.069 | 0.929 ± 0.03 | 0.89 ± 0.023 | 0.855 ± 0.034 | 0.768 ± 0.039 | 0.678 ± 0.092 | 0.337 ± 0.16 | 0.993 ± 0.019 | 0.952 ± 0.056 | 0.938 ± 0.055 | 0.891 ± 0.094 | 0.842 ± 0.14 | 0.36 ± 0.24 | 1.05 ± 0.078 | 0.954 ± 0.065 | 0.988 ± 0.066 | 0.906 ± 0.029 | 0.673 ± 0.078 | 0.0729 ± 0.13 | 0.932 ± 0.013 | 0.888 ± 0.0098 | 0.867 ± 0.023 | 0.752 ± 0.083 | 0.648 ± 0.11 | 0.446 ± 0.21 | 0.988 ± 0.013 | 0.915 ± 0.063 | 1 ± 0.077 | 0.87 ± 0.072 | 0.404 ± 0.078 | -0.107 ± 0.21
CC(C)CC(=O)Nc1n[nH]c2c1CN(C(=O)C1CCN(C)CC1)C2(C)C | 0.52 ± 0.085 | 0.436 ± 0.047 | 0.276 ± 0.097 | 0.109 ± 0.12 | -0.0127 ± 0.079 | -0.219 ± 0.12 | 0.497 ± 0.057 | 0.427 ± 0.073 | 0.227 ± 0.11 | 0.0474 ± 0.12 | -0.035 ± 0.096 | -0.157 ± 0.11 | 0.322 ± 0.09 | 0.228 ± 0.053 | 0.116 ± 0.063 | 0.0382 ± 0.073 | -0.0512 ± 0.066 | -0.187 ± 0.19 | 0.207 ± 0.15 | 0.143 ± 0.1 | 0.0348 ± 0.063 | -0.0125 ± 0.053 | -0.102 ± 0.12 | -0.328 ± 0.029 | 0.304 ± 0.16 | 0.211 ± 0.072 | 0.0329 ± 0.056 | -0.0471 ± 0.091 | -0.13 ± 0.13 | -0.262 ± 0.2 | 0.145 ± 0.15 | 0.0952 ± 0.085 | 0.0136 ± 0.079 | -0.0334 ± 0.073 | -0.0738 ± 0.074 | -0.305 ± 0.21
Cc1cc(C(=O)NOCCO)c(Nc2ccc(I)cc2F)n(C)c1=O [AZD-8330] | 0.685 ± 0.018 | 0.741 ± 0.034 | 0.748 ± 0.0083 | 0.739 ± 0.025 | 0.786 ± 0.01 | 0.803 ± 0.022 | 0.244 ± 0.066 | 0.212 ± 0.072 | 0.217 ± 0.11 | 0.213 ± 0.11 | 0.217 ± 0.1 | 0.197 ± 0.11 | 0.0964 ± 0.11 | 0.0999 ± 0.1 | 0.113 ± 0.08 | 0.131 ± 0.068 | 0.142 ± 0.075 | 0.143 ± 0.1 | 0.331 ± 0.077 | 0.33 ± 0.043 | 0.342 ± 0.041 | 0.41 ± 0.049 | 0.405 ± 0.029 | 0.465 ± 0.025 | 0.0852 ± 0.054 | 0.0627 ± 0.033 | 0.0584 ± 0.026 | 0.0698 ± 0.013 | 0.0774 ± 0.044 | 0.0933 ± 0.0085 | 0.497 ± 0.12 | 0.64 ± 0.045 | 0.708 ± 0.055 | 0.76 ± 0.064 | 0.778 ± 0.048 | 0.814 ± 0.076
O=C(NOCC1CC1)c1ccc(F)c(F)c1Nc1ccc(I)cc1Cl | 1.05 ± 0.03 | 1.032 ± 0.009 | 1.01 ± 0.043 | 0.9868 ± 0.0023 | 0.95 ± 0.018 | 0.289 ± 0.18 | 0.783 ± 0.081 | 0.686 ± 0.097 | 0.605 ± 0.12 | 0.528 ± 0.12 | 0.476 ± 0.094 | 0.267 ± 0.067 | 0.661 ± 0.016 | 0.547 ± 0.058 | 0.454 ± 0.059 | 0.371 ± 0.079 | 0.279 ± 0.068 | 0.165 ± 0.07 | 0.915 ± 0.15 | 0.81 ± 0.13 | 0.718 ± 0.059 | 0.646 ± 0.074 | 0.574 ± 0.034 | 0.344 ± 0.037 | 0.992 ± 0.058 | 0.8538 ± 0.0075 | 0.77 ± 0.023 | 0.63 ± 0.057 | 0.513 ± 0.05 | 0.181 ± 0.087 | 1.08 ± 0.054 | 1.05 ± 0.048 | 1.04 ± 0.023 | 1.02 ± 0.031 | 0.972 ± 0.077 | 0.611 ± 0.061
COc1ccc(-c2ccc3c(N4CCOC[C@@H]4C)nc(N4CCOC[C@@H]4C)nc3n2)cc1CO [AZD-8055] | 0.3 ± 0.14 | 0.179 ± 0.12 | 0.0816 ± 0.063 | 0.0556 ± 0.071 | -0.00646 ± 0.086 | -0.306 ± 0.36 | 0.255 ± 0.041 | 0.187 ± 0.031 | 0.176 ± 0.022 | 0.16 ± 0.023 | 0.111 ± 0.073 | -0.22 ± 0.29 | 0.494 ± 0.1 | 0.296 ± 0.088 | 0.205 ± 0.048 | 0.175 ± 0.027 | 0.146 ± 0.012 | -0.102 ± 0.39 | 0.0296 ± 0.035 | -0.00352 ± 0.044 | -0.0152 ± 0.064 | -0.00932 ± 0.072 | -0.0344 ± 0.067 | -0.216 ± 0.23 | 0.484 ± 0.046 | 0.317 ± 0.048 | 0.245 ± 0.0043 | 0.224 ± 0.015 | 0.146 ± 0.099 | -0.0657 ± 0.25 | -0.0402 ± 0.13 | -0.0898 ± 0.17 | -0.0997 ± 0.15 | -0.12 ± 0.1 | -0.137 ± 0.12 | -0.363 ± 0.15
COc1cc(C(=O)N2CCC(N3CCN(C)CC3)CC2)ccc1Nc1ncc2c(n1)N(C)c1ccccc1C(=O)N2C [XMD-1150] | 0.885 ± 0.11 | 0.85 ± 0.16 | 0.803 ± 0.16 | 0.722 ± 0.17 | 0.551 ± 0.12 | 0.238 ± 0.15 | 0.964 ± 0.035 | 0.913 ± 0.051 | 0.815 ± 0.034 | 0.66 ± 0.0096 | 0.411 ± 0.039 | -0.053 ± 0.089 | 0.973 ± 0.013 | 0.937 ± 0.021 | 0.841 ± 0.036 | 0.665 ± 0.078 | 0.384 ± 0.12 | 0.123 ± 0.052 | 0.852 ± 0.021 | 0.784 ± 0.014 | 0.599 ± 0.018 | 0.365 ± 0.034 | 0.201 ± 0.012 | 0.0333 ± 0.0087 | 0.891 ± 0.054 | 0.818 ± 0.088 | 0.567 ± 0.12 | 0.353 ± 0.077 | 0.189 ± 0.029 | 0.0699 ± 0.13 | 0.677 ± 0.17 | 0.669 ± 0.12 | 0.609 ± 0.12 | 0.514 ± 0.16 | 0.348 ± 0.18 | 0.0641 ± 0.18
CS(=O)(=O)N1CCN(Cc2cc3nc(-c4cccc5[nH]ncc45)nc(N4CCOCC4)c3s2)CC1 [GDC-0941] | 0.717 ± 0.053 | 0.689 ± 0.067 | 0.502 ± 0.17 | 0.258 ± 0.19 | 0.0678 ± 0.098 | -0.056 ± 0.052 | 0.779 ± 0.032 | 0.675 ± 0.031 | 0.568 ± 0.088 | 0.466 ± 0.1 | 0.408 ± 0.096 | 0.263 ± 0.077 | 0.869 ± 0.15 | 0.792 ± 0.18 | 0.625 ± 0.21 | 0.427 ± 0.14 | 0.289 ± 0.087 | 0.102 ± 0.038 | 0.331 ± 0.1 | 0.176 ± 0.079 | 0.0196 ± 0.047 | -0.00416 ± 0.0071 | -0.0358 ± 0.013 | -0.081 ± 0.069 | 0.784 ± 0.092 | 0.797 ± 0.069 | 0.715 ± 0.011 | 0.676 ± 0.056 | 0.644 ± 0.053 | 0.372 ± 0.1 | 0.384 ± 0.11 | 0.283 ± 0.088 | 0.131 ± 0.099 | 0.0555 ± 0.16 | 0.00405 ± 0.15 | -0.0817 ± 0.19
